In one experiment the test system is H460^C Cas9 cells. Kind of experiment: cell-based assay, cell death in control cells. The protocol: For cell-based screen, cells were seeded in triplicate at a density of 500-750 cells per 50 μL per well in black 384-well plates (NUNC) and (Corning) 24 hr before start of imaging. After 24 hr, an additional 50 μL of drug infused medium containing 30 nM SYTOX Green Dead Cell Stain was carefully placed into the wells on top of existing medium. The plates were immediately transferred to an IncuCyte S3 imaging system (Essen Bioscience) enclosed in an incubator set to 37° C. and 5% CO2. One image per well were captured in the phase, green, and red channels every 1.5 or 3 hr over a 24 hr period, and the ratio of SYTOX Green-positive objects (dead cells) to SYTOX Green-positive plus Sg-SAFE mCherry-positive objects (total cells) was quantified using S3 image analysis software (Essen Bioscience). For each treatment condition, the SYTOX-to-′SYTOX+mCherry′-object ratio was plotted against the 24 hr imaging interval, the Area Under the Curve (AUC) was calculated and the average AUC was plotted using Prism (GraphPad). To calculate the half-maximal effective concentration (EC50) values, the AUC curve was fit to a variable slope function comparing response to drug concentration. […]
Employing this assay, the amount of cell death induced by 168 FSP1 inhibitors in the H460^C Cas9 and H460^C GPX4^KO cells was assessed. […]

The target in experiment [1] is T1, His tagged FSP1 (WT) protein (Homo sapiens, UniProt Q9BRQ8).
T1 construct: made in house; host or cells: E. coli LOBSTR-BL21 (DE3)
T1 sequence (Q9BRQ8 1-373): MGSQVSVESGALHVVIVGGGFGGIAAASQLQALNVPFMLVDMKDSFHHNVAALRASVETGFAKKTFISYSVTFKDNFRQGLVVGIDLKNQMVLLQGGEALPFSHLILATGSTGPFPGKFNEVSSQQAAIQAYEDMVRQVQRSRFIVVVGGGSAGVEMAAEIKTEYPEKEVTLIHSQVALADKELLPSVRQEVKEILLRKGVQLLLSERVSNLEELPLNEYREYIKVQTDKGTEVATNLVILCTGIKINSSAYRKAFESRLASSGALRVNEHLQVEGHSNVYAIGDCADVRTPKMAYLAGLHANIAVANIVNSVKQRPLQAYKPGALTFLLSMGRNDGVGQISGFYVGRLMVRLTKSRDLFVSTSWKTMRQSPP
Kind of experiment: in vitro FSP1 activity assay (NADH oxidation during CoQ1 reduction, 355 nm absorbance). As to conditions: inhibition of FSP1 Coenzyme Q1 oxidoreductase activity in vitro. It is filed as biochemical. On the procedure:
For small molecule drug screen, 0.5 μL of compounds were stamped into 384 well NBS plates (Corning) in dose response diluted 2-fold with a high of 2 mM. 60 mL of purified His tagged FSP1 (WT) protein at 50 nM was prepared and 12.5 μL of this protein solution was aliquoted into 384 well NBS-plates (Corning) containing compound and allowed to incubate for 30 min at room temperature. After 30 min incubation 12.5 μL of reaction buffer (1 mM NADH, 800 µM CoQ1) was added into the 384 well NBS-plates containing protein and compounds for a final concentration of 25 nM His tagged FSP1 (WT) protein, 500 µM NADH (Sigma-Aldrich) and 400 µM CoQ1 (Sigma-Aldrich). Each well contained a 25 μL mixture and 40 µM compound in the primary screen. […] Measurements were taken at 355 nm with a EnVision 2104 multilabel plate reader (PerkinElmer). […] Compounds with confirmed data that have normalized absorbance values of less than 0.164 were chosen for dose response. […]
To measure NADH oxidation kinetics, 25 nM recombinant FSP1 was combined with 500 µM NADH and C400 µM Coenzyme Q1 in a total volume of 100 μl PBS. The change in absorbance at 355 nm, corresponding to NADH oxidation, was determined over the course of 4 h. All measurements were taken using a SpectraMax i3 Multi-Mode Platform plate reader (Molecular Devices). […]

The next experiment deals with H460^C GPX4^KO cells. Put plainly: cell-based assay of FSP1 activity, cell death (SYTOX Green/mCherry lethal fraction). The protocol: For cell-based screen, cells were seeded in triplicate at a density of 500-750 cells per 50 μL per well in black 384-well plates (NUNC) and (Corning) 24 hr before start of imaging. After 24 hr, an additional 50 μL of drug infused medium containing 30 nM SYTOX Green Dead Cell Stain was carefully placed into the wells on top of existing medium. The plates were immediately transferred to an IncuCyte S3 imaging system (Essen Bioscience) enclosed in an incubator set to 37° C. and 5% CO2. One image per well were captured in the phase, green, and red channels every 1.5 or 3 hr over a 24 hr period, and the ratio of SYTOX Green-positive objects (dead cells) to SYTOX Green-positive plus Sg-SAFE mCherry-positive objects (total cells) was quantified using S3 image analysis software (Essen Bioscience). For each treatment condition, the SYTOX-to-′SYTOX+mCherry′-object ratio was plotted against the 24 hr imaging interval, the Area Under the Curve (AUC) was calculated and the average AUC was plotted using Prism (GraphPad). To calculate the half-maximal effective concentration (EC50) values, the AUC curve was fit to a variable slope function comparing response to drug concentration.
In addition to the in vitro activity assay, an orthogonal cell-based assay of FSP1 activity was also developed. […]

Entries after “also recorded” stand apart in the source; their conditions may differ.

As a reminder, the IC50 is the concentration at which inhibition is half-maximal. A high value points to weaker potency in that assay.

For `Cc1ccc(-c2c(C#N)c(N)n3c(nc4ccccc43)c2C#N)cc1` [iFSP1], in the experiment on H460^C Cas9 cells, the “cell death in H460^C Cas9 cells” value is recorded as “but not in the H460^C Cas9 cells”. This molecule showed an IC50 in experiment [1] of 4.01 µM. Also, in the experiment with H460^C GPX4^KO cells, the “cell death in H460^C GPX4^KO cells” value is listed as “sufficient to trigger ferroptosis; also recorded: selectively triggered cell death”.

The record behind these values is patent US20250161297A1, “COMPOSITIONS AND METHODS FOR INHIBITING FSP1” (THE REGENTS OF THE UNIVERSITY OF CALIFORNIA, priority 2022, published 2025).
